Assay [1] deals with T1, TRPM5 (Mus musculus, UniProt Q9JJH7).
T1 construct: host or cells: mouse taste cells
T1 sequence (Q9JJH7 1-1158): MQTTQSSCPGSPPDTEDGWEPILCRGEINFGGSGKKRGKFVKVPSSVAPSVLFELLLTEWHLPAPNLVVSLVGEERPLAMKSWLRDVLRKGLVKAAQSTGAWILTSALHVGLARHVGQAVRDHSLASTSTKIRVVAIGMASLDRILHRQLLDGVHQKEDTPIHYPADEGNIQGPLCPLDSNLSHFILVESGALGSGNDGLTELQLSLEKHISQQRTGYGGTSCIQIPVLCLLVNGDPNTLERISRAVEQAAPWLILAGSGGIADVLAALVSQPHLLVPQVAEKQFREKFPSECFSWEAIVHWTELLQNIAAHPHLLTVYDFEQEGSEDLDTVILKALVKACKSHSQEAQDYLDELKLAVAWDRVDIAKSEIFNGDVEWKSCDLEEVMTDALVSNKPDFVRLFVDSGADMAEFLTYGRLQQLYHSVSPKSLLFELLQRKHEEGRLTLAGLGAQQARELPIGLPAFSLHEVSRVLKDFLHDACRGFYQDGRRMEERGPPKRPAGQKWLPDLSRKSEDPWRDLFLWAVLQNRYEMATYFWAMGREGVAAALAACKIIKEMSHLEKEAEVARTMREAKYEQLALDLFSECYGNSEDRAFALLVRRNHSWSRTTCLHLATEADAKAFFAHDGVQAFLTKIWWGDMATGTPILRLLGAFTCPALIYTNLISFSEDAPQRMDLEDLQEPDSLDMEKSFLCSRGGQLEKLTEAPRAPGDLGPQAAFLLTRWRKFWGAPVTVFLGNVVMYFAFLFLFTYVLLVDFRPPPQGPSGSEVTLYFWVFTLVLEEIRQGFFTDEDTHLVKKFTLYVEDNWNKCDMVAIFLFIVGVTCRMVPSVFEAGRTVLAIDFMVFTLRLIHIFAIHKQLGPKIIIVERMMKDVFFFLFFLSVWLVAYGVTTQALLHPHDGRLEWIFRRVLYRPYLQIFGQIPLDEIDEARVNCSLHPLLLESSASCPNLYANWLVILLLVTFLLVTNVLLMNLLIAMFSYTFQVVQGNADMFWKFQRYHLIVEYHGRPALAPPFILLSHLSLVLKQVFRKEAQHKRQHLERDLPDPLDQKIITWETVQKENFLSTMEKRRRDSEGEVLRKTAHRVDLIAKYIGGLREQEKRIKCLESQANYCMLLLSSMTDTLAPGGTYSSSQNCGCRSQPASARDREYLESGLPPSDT
Particulars: TPPO 5 μM; cited from earlier work.

For assay [2], the target named is T2, sodium ion channel of Trpm5 bitter receptor (Mus musculus, UniProt Q9JJH7).
T2 construct: Put the removed tongue in a 2 ml EP tube, add 1-1.5 ml of 0.25% trypsin solution; from tissue; host or cells: cells dissociated with trypsin from mouse tongue
T2 sequence (Q9JJH7 1-1158): T1 sequence (Q9JJH7 1-1158)
The experiment in a line: Immunofluorescence experiment of sodium ion channels in mouse tongue cells stimulated with bitter agent. Type of assay: cell-based, mice. As for the experimental part: The mouse was killed by dislocation, and the tongue was removed (minimizing tongue bleeding), disinfected with alcohol for 2 minutes (adding sodium citrate for anticoagulation), and washed with D-Hanks solution or rinsed with 10 ml of saline solution drawn by a syringe.
Take out the centrifuge tube from the constant temperature incubator, shake for 2 minutes, blow the undigested tongue several times with the gun tip, take out the tongue, cover it with the EP tube cap, put it in a centrifuge, centrifuge at 3000 rpm for 3 minutes, discard the supernatant, add cell culture medium (containing 10% inactivated serum), blow and disperse the cells, and place it in a 37° C. constant temperature incubator for 30 min to allow the cells to recover.
(1) Take out the prepared ENG-2 AM storage solution and warm it to room temperature for use, keeping it away from light. The concentration of the pre-prepared stock solution is 2 mM and it is stored at −18° C. for future use.
(2) Dilute the ENG-2 AM+DMSO stock solution to a […] working solution using serum-free culture medium.
(3) Load the probe in a serum-free culture medium containing an appropriate concentration of AM probe.
Take out the cells from the incubator, centrifuge, and discard the culture medium. Wash the cells once with D-Hanks solution, centrifuge, and discard the culture medium. Add 1 ml of culture medium again, then add 300 ul of sodium ion probe dilution solution, blow and disperse the cells, and incubate the cells at room temperature or 37° C. for 1 hour.
At the end of incubation, centrifuge at 100 rpm for 2 minutes, discard the supernatant, add 500 ul of cell culture medium without AM probe, blow and disperse the cells, and incubate for 20-60 min to ensure that the cells completely deesterify the AM group.
(4) Take 10 ul of incubation solution and drop it into the center of the cell counting plate, cover it with a slide, and observe it under a fluorescence microscope.
(5) Use a low-power microscope to find the cells, open the fluorescence path, detect the fluorescence signal with a fluorescence microscope, change to a high-power microscope, find the appropriate observation cells, observe and take pictures to record the initial signal.
(2) Experimental drugs: Add 5 ul of the tested drug to one side of the cover glass on the cell counting plate, use absorbent paper to absorb water on the opposite side, let the solution soak the cells, and then use a fluorescence microscope to observe and take 3-5 photos, one every 1-2 minutes; then add 5 ul of the standard bitter drug to one side of the cover glass on the cell counting plate, use absorbent paper to absorb water on the opposite side, let the solution soak the cells, and then use a fluorescence microscope to observe and take 3-5 photos, one every 1-2 minutes.
(5) Data analysis: Use Image J-Fiji software to analyze the images, compare the average values of the fluorescence pixels, remove the base number and compare them in the table, draw FIGS. 4-6, and use SPSS18.0 to perform chi-square tests to compare the differences between the data groups.

Setting [3] is: Bitterant 60 s (2% metronidazole solution).
The mark [4] stands for this setting: Bitterant 120 s (2% metronidazole solution).
The mark [5] stands for this setting: Bitterant 180 s (2% metronidazole solution).

Consider `O=P(c1ccccc1)(c1ccccc1)c1ccccc1` [Triphenylphosphine oxide, reference compound], for which, in assay [1], the “remaining taste-evoked Na^+ responses” value is “abolished”. Also, the “average value of fluorescence brightness” value in assay [2] (Addition of drugs) came out at 88.789; in assay [2] (setting [3]) it was 88.608; in assay [2] (setting [4]) it was 88.598; in assay [2] (setting [5]), 88.583; in assay [2] (Initial (before addition of drug), sodium ion dye ENG-2 AM) it was 88.898. Further, the “average value of fluorescence brightness, base number removed” value in assay [2] (Addition of drugs) is given as −0.243; in assay [2] (setting [3]), −0.308; in assay [2] (setting [4]) it was −1.322; in assay [2] (setting [5]) it was −1.384; in assay [2] (Initial), 0. Moreover, the “blocking effect on the sodium ion channel (result analysis in words)” value in assay [2] (judged from change of sodium ion fluorescence after bitter drug) is “sodium ion channel is blocked”.

The record behind these values is patent US20250108023A1, “Products for Masking Bitterness” (The Third People's Hospital of Henan Province, priority 2023, published 2025).
